Test results reported in DBAASP.
Values after ≈ are worked out from the molar mass of the structure shown. Each block holds one compound with its values, some of them ahead of it.

What was measured:
Experiment in all cases: ≥ marks a high value that may be exact or a test limit, other limits are often not marked, values filed in µg/mL are converted to µM
[1] = tested on: Vibrio anguillarum NCIMB 2129
Yersinia ruckeri VI-3629 = tested on: Yersinia ruckeri VI-3629
[2] = tested on: Vibrio anguillarum VI-F258-3
[3] = tested on: Corynebacterium glutamicum ATCC 13032
[4] = tested on: Yersinia ruckeri NCIMB 2196
[5] = tested on: Vibrio anguillarum NCIMB 2133
[6] = tested on: Aeromonas salmonicida NCIMB 1102
[7] = tested on: Staphylococcus aureus ATCC 9144
[8] = tested on: Planococcus citreus NCIMB 1493
[9] = tested on: Psychrobacter immobilis NCIMB 308
[10] = tested on: Escherichia coli ATCC 25922
[11] = tested on: Micrococcus luteus ATCC 4698
Micrococcus luteus = tested on: Micrococcus luteus
Staphylococcus aureus = tested on: Staphylococcus aureus
Bacillus cereus = tested on: Bacillus cereus
Pasteurella multocida = tested on: Pasteurella multocida
[12] = tested on: Batrachochytrium dendrobatidis
[13] = tested on: Staphylococcus epidermidis
Streptococcus uberis = tested on: Streptococcus uberis
Leuconostoc lactis = tested on: Leuconostoc lactis
Escherichia coli = tested on: Escherichia coli
Listeria innocua = tested on: Listeria innocua
[14] = tested on: Staphylococcus aureus ATCC 25923
[15] = tested on: Salmonella enterica subsp. enterica serovar Typhimurium ATCC 700408
[16] = tested on: Staphylococcus aureus ATCC 43300
[17] = tested on: Staphylococcus aureus ATCC BAA-39
[18] = tested on: Klebsiella pneumoniae ATCC 13883
[19] = tested on: Listeria monocytogenes ATCC 19115
[20] = tested on: Salmonella enterica subsp. enterica serovar Typhimurium ATCC 14028

MIC [1]: 10 µM (≈ 23.5 µg/mL)
MIC (Yersinia ruckeri VI-3629): 10 µM (≈ 23.5 µg/mL)
MIC [2]: 10 µM (≈ 23.5 µg/mL)
MIC [3]: 10 µM (≈ 23.5 µg/mL)
MIC [4]: 3.54 µM (≈ 8.33 µg/mL)
MIC [5]: 10 µM (≈ 23.5 µg/mL)
MIC [6]: 10 µM (≈ 23.5 µg/mL)
MIC [7]: 10 µM (≈ 23.5 µg/mL)
MIC [8]: 10 µM (≈ 23.5 µg/mL)
MIC [9]: 3.54 µM (≈ 8.33 µg/mL)
MIC [10]: > 10 µM
MIC [11]: 10 µM (≈ 23.5 µg/mL)
SMILES: CC[C@H](C)[C@H](NC(=O)[C@H](CC(C)C)NC(=O)CNC(=O)[C@@H](NC(=O)[C@@H](NC(=O)[C@H](Cc1cnc[nH]1)NC(=O)[C@H](Cc1cnc[nH]1)NC(=O)[C@H](CC(C)C)NC(=O)[C@@H](N)Cc1ccccc1)[C@@H](C)CC)C(C)C)C(=O)N[C@@H](Cc1cnc[nH]1)C(=O)N[C@@H](Cc1cnc[nH]1)C(=O)NCC(=O)N[C@@H](CC(C)C)C(=O)N[C@@H](CO)C(=O)N[C@@H](CC(C)C)C(=O)N[C@@H](Cc1ccccc1)C(=O)NCC(=O)N[C@@H](CC(=O)O)C(=O)N[C@@H](CCCN=C(N)N)C(=O)N[C@@H](C)C(=O)N[C@@H](CC(=O)O)C(=O)O [FLHHIVGLIHHGLSLFGDRAD]

MIC (Micrococcus luteus): 5.15 µM (≈ 12 µg/mL)
MIC (Staphylococcus aureus): > 42.9 µM
MIC (Bacillus cereus): ≥ 42.9 µM
MIC (Pasteurella multocida): ≥ 42.9 µM
MIC [12]: ≥ 200 µM
MIC [13]: ≥ 42.9 µM
MIC (Streptococcus uberis): ≥ 42.9 µM
MIC (Leuconostoc lactis): ≥ 42.9 µM
MIC (Escherichia coli): 10.7 µM (≈ 25 µg/mL)
MIC (Listeria innocua): ≥ 42.9 µM
SMILES: CC[C@H](C)[C@H](NC(=O)CNC(=O)[C@H](CCC(=O)O)NC(=O)[C@@H](NC(=O)[C@@H](NC(=O)CNC(=O)[C@H](CO)NC(=O)[C@H](C)NC(=O)[C@H](CC(C)C)NC(=O)[C@H](CC(=O)O)NC(=O)CNC(=O)[C@H](C)NC(=O)[C@H](C)NC(=O)[C@H](CO)NC(=O)[C@H](CCCCN)NC(=O)[C@@H](NC(=O)[C@H](CCCCN)NC(=O)[C@H](CCC(N)=O)NC(=O)[C@H](Cc1c[nH]c2ccccc12)NC(=O)[C@H](CC(C)C)NC(=O)CN)[C@@H](C)CC)[C@@H](C)CC)C(C)C)C(=O)N[C@@H](CCCCN)C(=O)N[C@@H](CO)C(N)=O [GLWQKIKSAAGDLASGIVEGIKS]

MIC [14]: 37.1 µM (≈ 100 µg/mL)
MIC [15]: 9.29 µM (≈ 25 µg/mL)
MIC [16]: 37.1 µM (≈ 100 µg/mL)
MIC [17]: ≥ 37.1 µM
MIC [18]: 9.29 µM (≈ 25 µg/mL)
MIC [10]: 9.29 µM (≈ 25 µg/mL)
MIC [19]: 9.29 µM (≈ 25 µg/mL)
MIC [20]: 9.29 µM (≈ 25 µg/mL)
SMILES: CC(C)C[C@H](NC(=O)[C@H](CCCN=C(N)N)NC(=O)CNC(=O)[C@H](CCC(N)=O)NC(=O)[C@@H]1CCCN1C(=O)[C@H](CC(C)C)NC(=O)[C@H](CCCCN)NC(=O)[C@H](Cc1ccccc1)NC(=O)[C@@H](NC(=O)[C@@H]1CCCN1C(=O)[C@H](CCC(N)=O)NC(=O)[C@H](CO)NC(=O)[C@H](Cc1ccccc1)NC(=O)[C@H](CCCN=C(N)N)NC(=O)[C@@H](N)CCC(N)=O)[C@@H](C)O)C(=O)N[C@H](C(=O)N[C@@H](CC(C)C)C(=O)N[C@@H](CO)C(=O)N[C@@H](CCCN=C(N)N)C(=O)N[C@@H](CCCCN)C(=O)N[C@@H](Cc1ccccc1)C(=O)N[C@@H](CCCN=C(N)N)C(=O)O)[C@@H](C)O [QRFSQPTFKLPQGRLTLSRKFR]
